Legend:
[1] = Chronic oral OEA in high fat diet: food intake; type: in vivo; conditions: C3H mice, 4 weeks
From the text: (§1) The physiological and biochemical effects of chronic oral OEA administration were investigated. Mice were chronically fed with OEA, provided as a supplement during 4 weeks, to study the effect on body weight gain and cumulative food intake, among other parameters.
(§2) Animals, diet and experimental design. Adult male C3H mice purchased at 8 weeks of age were individually housed and maintained ad libitum on different diets and water for 2 weeks. Seven mice were allocated in 3 groups by randomization by weight, and fed with a high fat diet (lipids represented 50% of daily energy) during 2 weeks. The composition of the high fat diet per kg was: 284.5 g of corn starch, 89.5 g of saccharose, 250 g of casein, 50 g of cellulose, 10 g of a mix of vitamins (V1001), 35 g of a mix of minerals (S10026) and 281 g of canola oil (UPAE, Jouy en Josas, France). Then, OEA was added to the diets at different levels to provide 0, 10, or 100 mg OEA/kg body weight. The mice were kept on each respective diet for 4 weeks. During the nutritional intervention, daily food intake was monitored and the mice were weighed 3 times a week.
(§3) Statistical analysis. Results were determined as mean±standard error of the mean (SEM). Statistical analysis of physiological parameters was performed by one-way ANOVA on Statview software (SAS institute, Cary, USA). Statistical significance was set up at the P<0.05 level.

[2] = Chronic oral OEA in high fat diet: liver, adipose fat pads and body weight; type: in vivo; conditions: C3H mice, 4 weeks
From the text: as §1, §2
(§4) Sampling. At the end of the experimental period, mice were sacrificed by blood drawing after anesthesia with isoflurane. Plasma was obtained by centrifugation (1,000 g for 10 min at 4° C.). Mesenteric, epididymal, inguinal and peritoneal adipose depots, as well as liver, stomach, small intestine mucosa and gastrocnemian muscle were excised and frozen into liquid nitrogen. Plasma and organ samples were kept at −80° C. until analysis. Triglycerides, glucose, total cholesterol and HDL cholesterol were directly measured on plasma samples collected during the sacrifice by enzymatic procedures, using a Beckman Coulter Systems SYNCHRON LX 20 (Beckman Coulter, Fullerton, USA) (oxidase method, Beckman Coulter for glucose, GPO method, Beckman Coulter for TG, oxidase and esterase method, Beckman Coulter for cholesterol). HDL were isolated by specific solubilization, using a precipitation isolation kit (Beckman Coulter, Fullerton, USA).
as §3

[3] = Chronic oral OEA in high fat diet: plasma triglycerides and cholesterol; type: in vivo; conditions: C3H mice, 4 weeks; for Plasma triglycerides, change: P<0.05
From the text: as §1, §2, §4, §3

[4] = system: Stearoyl-Coenzyme A desaturase 1 (SCD 1); test: Real-time PCR gene expression in peripheral tissues: SCD1; type: in vivo; conditions: C57bl6j mice, high fat diet, 100 mg/kg/body weight in diet, 5 weeks
Protocol: (§5) The expression of 45 genes was measured by real-time PCR in peripheral tissues to identify genes that were differentially expressed in response to oral administration of oleoylethanolamide (OEA) or a non-hydrolysable OEA analog (KDS 5104), which affect satiety, lipid metabolism, fat utilization, food intake, and body fat mass.
Animals, diet, and experimental design. Adult male C57bl6j mice purchased at 8 weeks of age were individually housed and maintained ad libitum on high fat diet and water for 2 weeks. Seven mice were randomly allocated in 3 groups and fed with a high fat diet (lipids represented 50% of daily energy) for 2 weeks. For one kilogram, the composition of the high fat diet was: 235 g casein, 201 g saccharose, 3.5 g L-cystine, 85 g starch, 116 g maltodextrin, 60 g cellulose, 12 g vitamins mix (AIN-93M, UPAE, Jouy-en-Josas, France), 51.5 g mineral mix (AIN-93Vx, UPAE, Jouy-en-Josas, France), and 236 g lard. Then, either OEA or KDS 5104 was added to the diet at a concentration of 100 mg/kg/body weight. The mice were kept under treatment for 5 weeks.
Sampling. At the end of the experimental period, mice were sacrificed by blood drawing (cardiac puncture) after anesthesia with isoflurane. Plasma was obtained by centrifugation (1,000 g for 10 min at 4° C.). Mesenteric, epididymal, inguinal and peritoneal adipose depots, as well as liver, stomach, small intestine mucosa, pancreas, and gastrocnemian muscle were removed and frozen into liquid nitrogen. Plasma, urine, feces, and organ samples were kept at −80° C. until analysis.
RNA extraction and gene expression. Total RNA from liver, intestine mucous membrane, adipose tissues, gastrocnemian muscle, pancreas and stomach were extracted with TRIzol reagent (Invitrogen, Carlsbad, USA) according to the manufacturer's instruction. The RNA concentration was determined on nanodrop from the absorbance at 260 nm. Retro-transcription PCRs to synthesize cDNA were performed using an Applied Biosystem Thermal Cycler 2720 and Superscript II (Invitrogen, Carlsbad, USA) according to manufacturer's protocol. Real-time quantitative PCR (RT-qPCR) were performed on cDNA obtained as described above using a high through put system (Biomek 3000, Beckman & Coulter, Fullerton, USA) and a Lightcycler 480 (Roche/Hitachi, Basel, Switzerland) with SYBR Green Master mix+kit (Eurogentec, Philadelphia, USA). Primers for the selected genes were generated using online informatics assistance from the Lightcycler manufacturer (Roche). Databases used to identify the genes were (1) the NCBI database (GenBank) and (2) the IHOP (Information Hyperlinked over Protein) database (www.ihop-net.org/UniPub/iHOP/bng/). Values were expressed as ratio of RNA levels relative to control mice (diets with 0 mg of OEA/kg/body weight) using ΔΔ(Ct) (Livak K J & Schmittgen T D, 2001, Methods 25:402-8). Gene expression of the following genes was measured (abbreviation and GenBank Accession shown in parentheses).
Statistical analysis. […] Statistical analysis of physiological parameters and gene expression data was performed by one-way ANOVA on Statview software (SAS Institute, Cary, USA). Daily food intake was analyzed using two-way ANOVA on Statview software. Statistical significance was set up at the P<0.05 level, the P<0.01 level and the P<0.001 level. For statistical analysis of the gene expression data, values were calculated relative to 18S expression for each mouse and gene.

[5] = system: G protein coupled receptor 119 (GPR 119); test: Real-time PCR gene expression in peripheral tissues: GPR119; type: in vivo; conditions: proximal intestine; C57bl6j mice, high fat diet, 100 mg/kg/body weight in diet, 5 weeks
Protocol: as §5
(§6) Animals, diet, and experimental design. Adult male C57bl6j mice purchased at 8 weeks of age were individually housed and maintained ad libitum on high fat diet and water for 2 weeks. Seven mice were randomly allocated in 3 groups and fed with a high fat diet (lipids represented 50% of daily energy) for 2 weeks. […]
(§7) RNA extraction and gene expression. […] The RNA concentration was determined on nanodrop from the absorbance at 260 nm. […] Real-time quantitative PCR (RT-qPCR) were performed on cDNA obtained as described above using a high through put system (Biomek 3000, Beckman & Coulter, Fullerton, USA) and a Lightcycler 480 (Roche/Hitachi, Basel, Switzerland) with SYBR Green Master mix+kit (Eurogentec, Philadelphia, USA). […] Values were expressed as ratio of RNA levels relative to control mice (diets with 0 mg of OEA/kg/body weight) using ΔΔ(Ct) (Livak K J & Schmittgen T D, 2001, Methods 25:402-8). Gene expression of the following genes was measured (abbreviation and GenBank Accession shown in parentheses). […]

[6] = system: Cholescystokinin (CCK); test: Real-time PCR gene expression in peripheral tissues: CCK; type: in vivo; conditions: proximal intestine; C57bl6j mice, high fat diet, 100 mg/kg/body weight in diet, 5 weeks
Protocol: as §5, §6, §7

[7] = system: Glucose 6-phosphatase (G6P); test: Real-time PCR gene expression in peripheral tissues: G6P; type: in vivo; conditions: liver; C57bl6j mice, high fat diet, 100 mg/kg/body weight in diet, 5 weeks
Protocol: as §5, §6, §7

[8] = cited from earlier work
[9] = rodents, intraperitoneal administration

SMILES: CCCCCCCC/C=C\CCCCCCCC(=O)NCCO [OEA, N-oleoyl-ethanolamide]
- Dose dependence of the effect on food intake ([1]; 10 vs 100 mg/kg body weight): not dose dependent
- Food intake, change in mice consuming OEA ([1]; high fat diet, OEA 10 or 100 mg/kg body weight in diet, P<0.05): −6.5%
- mesenteric fat pads ([2]; independently of the dose): remained unaffected
- Peritoneal adipose tissue ([2]; OEA 10 or 100 mg/kg body weight): mainly decreased
- Hepatomegaly ([2]; OEA in diet): did not induce hepatomegaly
- final body weight ([2]; OEA in diet): not affected
- inguinal fat pads (indicator of subcutaneous fat depot) ([2]; OEA in diet, P<0.05): decreased
- Plasma triglycerides, change ([3]; 10 mg dose): −72%
- plasma total cholesterol ([3]; 10 mg/kg): trend to decreased
- Plasma triglycerides, change ([3]; 100 mg dose): −59%
- plasma total cholesterol (decrease) ([3]; 100 mg/kg body weight): reached statistical significance
- SCD 1 at ep, ratio of RNA levels relative to control mice ([4]; epidydimal adipose tissue): 1.00
- SCD1 l, ratio of RNA levels relative to control mice ([4]; liver): −2.13
- SCD 1 at per, ratio of RNA levels relative to control mice ([4]; peritoneal adipose tissue): −1.30
- GPR119 i, ratio of RNA levels relative to control mice [5]: 1.97
- CCK i, ratio of RNA levels relative to control mice [6]: 1.57
- G6P l, ratio of RNA levels relative to control mice [7]: 1.29
- food intake (meal size, first meal delay, meal intervals) ([8]; administrated intraperitoneally): reduced food intake
- body fat gain [8, 9]: reduced body fat gain
- satiety and lipid utilization [8, 9]: induce satiety and peripheral utilization of lipid substrate

Source: US8742082B2, “Compositions and methods for influencing satiety, lipid metabolism, and fat utilization” (Nestec S.A., priority 2008, dated 2014)
